Read-outs that look alike come from different tables or passages of the source.
Key:
Chk1 = molecular target: T1, Chk1 (Homo sapiens, UniProt O14757); assay: biochemical; settings: ADP-Glo; read-out: Chk1 in vitro enzyme activity (grade)
T1 construct: purchased BPS 40039
T1 sequence (O14757 1-476): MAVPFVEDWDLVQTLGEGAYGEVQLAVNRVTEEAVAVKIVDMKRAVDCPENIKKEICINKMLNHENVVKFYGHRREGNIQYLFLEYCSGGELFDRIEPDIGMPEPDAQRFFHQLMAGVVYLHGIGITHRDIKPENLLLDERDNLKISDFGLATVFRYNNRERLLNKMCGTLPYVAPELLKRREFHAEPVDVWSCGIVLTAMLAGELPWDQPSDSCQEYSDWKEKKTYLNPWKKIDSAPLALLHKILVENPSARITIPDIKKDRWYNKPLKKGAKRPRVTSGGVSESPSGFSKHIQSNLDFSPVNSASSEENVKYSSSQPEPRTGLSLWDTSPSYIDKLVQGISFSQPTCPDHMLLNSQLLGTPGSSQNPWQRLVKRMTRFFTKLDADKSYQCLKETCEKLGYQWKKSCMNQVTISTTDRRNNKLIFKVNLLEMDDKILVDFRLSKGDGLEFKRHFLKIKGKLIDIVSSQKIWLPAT

Chk2 = molecular target: T2, Chk2 (Homo sapiens, UniProt O96017); assay: biochemical; settings: ADP-Glo; read-out: Chk2 in vitro enzyme activity (grade)
T2 construct: purchased Carna 02-162
T2 sequence (O96017 whole entry): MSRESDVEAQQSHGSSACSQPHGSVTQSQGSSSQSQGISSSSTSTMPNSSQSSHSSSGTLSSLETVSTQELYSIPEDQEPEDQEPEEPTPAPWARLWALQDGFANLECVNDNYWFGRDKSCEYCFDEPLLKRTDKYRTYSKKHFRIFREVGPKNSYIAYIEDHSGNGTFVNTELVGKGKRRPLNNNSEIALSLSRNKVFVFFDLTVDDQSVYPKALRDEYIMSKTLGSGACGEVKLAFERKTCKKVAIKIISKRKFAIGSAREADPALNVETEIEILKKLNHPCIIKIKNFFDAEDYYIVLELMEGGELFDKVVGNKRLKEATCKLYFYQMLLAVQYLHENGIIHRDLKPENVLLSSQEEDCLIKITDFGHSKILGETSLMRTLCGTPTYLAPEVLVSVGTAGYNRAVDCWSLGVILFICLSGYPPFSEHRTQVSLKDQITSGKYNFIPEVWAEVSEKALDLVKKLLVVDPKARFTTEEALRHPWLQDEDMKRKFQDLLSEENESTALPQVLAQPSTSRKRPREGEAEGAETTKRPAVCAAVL

HT-29 = assay: Cancer cell growth inhibition assay (CellTiter-Glo), HT-29; type: cell-based, Human; settings: 72 hours, cellular ATP content, read-out: HT-29 anti cell proliferation activity (grade)
Method: (§1) Human cancer cell lines were purchased from American Type Culture Collection (Manassas, Va.). The trypsinized cells were diluted to required volume at densities of 44,000 cells/ml. 90 ul cell slurry was dispensed per well in 96-well flat-bottomed plates with the recommended culture medium. The cells were incubated for 24 hours at 37° C. in 5% CO2 under humidified condition. The cells were then incubated with compounds at various concentrations for 72 hours in culture medium supplemented with 0.5% (v/v) FBS. Growth inhibition was assessed by assay of cellular ATP content using CellTiter-Glo reagent to each well. Luminesce was read on Envision. The inhibition rate (%)=(Max signal compound signal)/(Max signal Min signal)×100.

MDA-MB-231 = assay: Cancer cell growth inhibition assay (CellTiter-Glo), MDA-MB-231; type: cell-based, Human; settings: 72 hours, cellular ATP content, read-out: MDA-MB-231 anti cell proliferation activity (grade)
Method: as §1

[1] = Pharmacokinetics study in rats, intravenous; type: in vivo, SD rats; settings: rat; for AUC(0-inf) / AUC(0-t) / clearance / MRT / half-life / Vd: male, SD, plasma; for AUC(0-inf): read-out: AUC0-inf; for AUC(0-t): read-out: AUC0-t; for clearance: read-out: CL (converted); for MRT: read-out: MRT; for half-life: read-out: t½ (converted)
Method: Compounds were formulated in 30% SEB-β-CD (Zhiyuan Bio-technology) with 1 molar equivalents of HCl (pH adjusted to 3-5). Male SD rats (280-350 g) were purchased from Medical Laboratory Animal Center of Guangdong. Three rats were used for each PK study. […] At various time points after compound administration, approximately 0.2˜0.3 mL of blood was collected by cutting the end of tail into tubes containing K2-EDTA. The plasma was separated via centrifugation and stored at −80° C. A PE Sciex API-3000 LC-MS/MS system (Applied Biosystems, Inc.) was used to analyze compound concentrations in plasma.
PK studies of ChK1 inhibitors were conducted in rats after intravenous administration at 10 mg/kg. […]. […]

[2] = Human liver S9 metabolic stability; type: in vitro ADME; settings: for Percentage Remaining %: 1 μM, 37° C.; for half-life at 1 μM: human liver S9, 1 μM
Method: Compounds (1 μM) were incubated with human liver S9 (from BD Gentest) at final liver microsomal protein concentration of 0.5 mg/mL for 0, 5, 15, 30, 45 min at 37° C. The remaining compounds in the reaction were measured by LC-MS/MS. The half-life (T½) 0.693/K (K is the rate constant from a plot of ln [concentration] vs. incubation time).

[3] = tested on: HT-29 colon cancer xenograft; type: in vivo
Method: (§2) Female Balb/c nude mice at 7-8 weeks of age (Body weights between 17-18g) were purchased from Hunan SJA Laboratory Animal Co., Ltd. HT-29 cells were cultured in DMEM culture medium containing 10% fetal bovine serum and LoVo cells were cultured in RPMI 1640 culture medium containing 10% fetal bovine serum. The cells were harvested and washed with serum free culture medium. Finally, the cells were suspended at a cell density of […] in serum free culture medium for implantation. 5 million cells per animal suspended in 0.1 ml serum free culture medium and 1.1 matrigel were injected into the right flank of the animals after a one, week acclimation period. When average tumor volume reached acceptable tumor size (100-200 mm^3) and shape, the animals were randomly assigned into treatment groups.
HT-29 colon cancer cells were implanted to establish the xenograft model in Balb/c nude mice. Compound 3 and LY2606368 were dissolved in 30% SEB-β-CD (Zhiyuan Bio-technology) with 1 molar equivalents of HCl. GDC-575 was suspended in 0.5% methyl cellulose/0.1% Tween 80 in water. […]. The animals well tolerated each treatment in the HT-29 colon cancer in nude mice model.

HT-29 tumor xenograft = assay: HT-29 xenograft model, alone or in combination with CPT-11; type: in vivo, Balb/c nude mice; settings: for % T/C value: 15 mg/kg, IV
Method: as §2
In HT-29 tumor xenograft model, the animals were treated with a single compound, a ChK1 inhibitor or CPT-11, or a combination with CPT11. […] The animals well tolerated each treatment in the HT-29 colon cancer in nude mice model.

[4] = tested on: LoVo colon cancer xenograft; assay: LoVo colon xenograft model; type: in vivo, Balb/c nude mice; settings: IV, twice a week
Method: as §2
Lovo colon cancer cells were implanted to establish the xenograft model in Balb/c nude mice. Compound 3 and LY2606368 were dissolved in 30% SEB-β-CD (Zhiyuan Bio-technology) with 1 molar equivalents of HCl. […]

[5] = tested on: ChK1 phosphorylation (pChK1 S296) in HT-29 colon cancer cells; assay: Western blot analysis of ChK1 phosphorylation in HT-29 cells with SN-38; type: cell-based, Human; settings: HT-29 cells pre-incubated with Chk1 inhibitor 0.5 hours, then SN-38 (200 nM) 16 hours

Compound: COc1cc(Cl)cc(OCCCN)c1-c1cc(Nc2cnc(C#N)cn2)n[nH]1 [Compound 4, 5-(5-(2-(3-Aminopropoxy)-4-chloro-6-methoxyphenyl)-1H-pyrazol-3-ylamino)pyrazine-2-carbonitrile]
- IC50 (Chk1): ≤ 1 nM
- IC50 (Chk2): 50 to 100 nM
- IC50 (HT-29; Homo sapiens, HT-29): 10 to 50 nM
- IC50 (MDA-MB-231; Homo sapiens, MDA-MB-231): 10 to 50 nM
- AUC(0-inf) ([1]; IV, 10 mg/kg): 2400 ng·h/mL
- AUC(0-t) ([1]; IV, 10 mg/kg): 2390 ng·h/mL
- clearance ([1]; IV, 10 mg/kg): 78.3 mL/min/kg
- MRT ([1]; IV, 10 mg/kg): 3.1 h
- half-life ([1]; IV, 10 mg/kg): 3.3 h
- Vd ([1]; iv, 10 mg/kg, IV, 10 mg/kg, read-out: Vd): 22.1 L/kg
- Vd ([1]; iv, 10 mg/kg, IV, 10 mg/kg, read-out: Vss): 14.3 L/kg
- half-life and exposure compared with LY2606368 ([1]; IV, 10 mg/kg (LY2606368 5 mg/kg)): longer half-life and higher exposure than LY2606368
- Percentage Remaining % ([2]; 0 min): 100.00%
- Percentage Remaining % ([2]; 5 min): 97.57%
- Percentage Remaining % ([2]; 15 min): 94.83%
- Percentage Remaining % ([2]; 30 min): 88.45%
- Percentage Remaining % ([2]; 45 min): 82.67%
- metabolic stability compared with LY2606368 ([2]; human liver S9): more metabolic stable than LY2606368
- half-life at 1 μM [2]: 103 h
- melting point: 198 to 203 °C

Compound: COc1cccc(OCCCN)c1-c1cc(Nc2cnc(C#N)cn2)n[nH]1 [LY-2606368, reference compound]
- IC50 (HT-29; Homo sapiens, HT-29): 10 to 50 nM
- IC50 (MDA-MB-231; Homo sapiens, MDA-MB-231): 10 to 50 nM
- AUC(0-inf) ([1]; IV, 5 mg/kg): 637 ng·h/mL
- AUC(0-t) ([1]; IV, 5 mg/kg): 631 ng·h/mL
- clearance ([1]; IV, 5 mg/kg): 132 mL/min/kg
- MRT ([1]; IV, 5 mg/kg): 1.2 h
- half-life ([1]; IV, 5 mg/kg): 1.3 h
- Vd ([1]; iv, 5 mg/kg, IV, 5 mg/kg, read-out: Vd): 14.7 L/kg
- Vd ([1]; iv, 5 mg/kg, IV, 5 mg/kg, read-out: Vss): 9.7 L/kg
- tolerability in rats ([1]; in vivo, iv, 10 mg/kg): did not tolerated
- T/C value ([3]; 15 mg/kg, iv, 2 times/week): 61%
- Tumor volume (X ± SD) ([3]; 15 mg/kg, iv, 2 times/week): 615 ± 10 mm^3
- Tumor weight (X ± SD) ([3]; 15 mg/kg, iv, 2 times/week): 390 ± 24 mg
- % T/C value (HT-29 tumor xenograft; twice a week plus CPT-11 (50 mg/kg, IV, once per week)): 0%
- % T/C value (HT-29 tumor xenograft; alone, twice a week): 61%
- effect on anti-tumor growth activity of CPT11 (HT-29 tumor xenograft; combination with CPT11): enhanced anti-tumor growth activity of CPT11
- T/C value ([4]; 15 mg/kg): −57%
- tumor growth inhibition ([4]; LY2606368 15 mg/kg, Compound 3 10, 20, 40 mg/kg): significant tumor growth inhibition in a dose-dependent manner
- half-life at 1 μM [2]: 1.47 h

Compound: N[C@@H]1CCCN(c2c(Br)cnc3[nH]cc(NC(=O)C4CC4)c23)C1 [GDC-0575, reference compound]
- IC50 (Chk1): 1 to 10 nM
- IC50 (Chk2): 50 to 100 nM
- IC50 (HT-29): 100 to 500 nM
- IC50 (MDA-MB-231): 100 to 500 nM
- inhibition of Chk1 phosphorylation (FIG. 1) [5]: less potent than these compounds
- T/C value ([3]; 25 mg/kg, po, 3 times/week): 50%
- Tumor volume (X ± SD) ([3]; 25 mg/kg, po, 3 times/week): 515 ± 158 mm^3
- Tumor weight (X ± SD) ([3]; 25 mg/kg, po, 3 times/week): 349 ± 94 mg

— patent US11116767B2, “3,5-disubstituted pyrazoles useful as checkpoint kinase 1 (Chk1) inhibitors, and their preparations and applications” (PHARMAENGINE, INC., priority 2016, dated 2021)
